From patent US20100226597A1, “BORTEZOMIB AND PROCESS FOR PRODUCING SAME” (DR. REDDY'S LABORATORIES LIMITED, priority 2007, published 2010)
Entries after “also recorded” stand apart in the source; their conditions may differ.

Tests used:
[1] = Stability study of Bortezomib stored under general storage conditions (sealed polymeric bag, 25° C. and 60% RH), purity by HPLC; assay type: physicochemical
Protocol: (§1) HPLC measurements of Bortezomib samples for chemical purity were performed using Waters system, equipped with Waters symmetry shield RP-18, 250X4.6 mm ID, 5 μm, particle size and a UV detector operated on 270 nm. Analyses were performed using the following mobile phase, at flow rate of 1.0 ml/minute, run time 55 minutes. Mobile phase A: Mix 700 ml water, 300 ml Acetonitrile and 1 ml formic acid, filter and degas. Mobile phase B: Mix 800 ml Acetonitrile, 200 ml water and 1 ml formic acid, filter and degas. Elution: Gradient program

[2] = Stability study of aqueous solution of Bortezomib in basic medium (pH ~10.5), purity by HPLC
Protocol: A small quantity was taken from solution after 1 hours, 2 hours and 3 hours and the purity was checked by HPLC and compared to the original HPLC chromatogram of initial sample (immediately after adjusting the pH). The purity of each sample was obtained as % area by the HPLC chromatogram and compared to the initial purity value.
as §1

[3] = Stability study of Bortezomib in the exemplary storage system of the invention (two polybags with external desiccant), purity by HPLC; settings: for Initial purity: % area by HPLC
Protocol: Two different samples of Bortezomib were stored at a storage condition of 2-8° C. and 25° C., 60% relative humidity (RH) in a storage system (packed in one Polybags having a thickness about 0.10 mm followed by repacking in another polybag having thickness of about 0.10 mm and containing external desiccant). A small quantity was taken from each sample after 15 days, 1 month (30th day), 2 months (60th day) and 3 months (90th day) and the purity was checked by HPLC and compared to the original HPLC chromatogram of each sample (before starting the storage period). The chemical purity of each sample was obtained as % area by the HPLC chromatogram and compared to the initial purity value (before starting the storage period).
as §1

[4] = 7th day, general storage conditions
[5] = 15th day, general storage conditions
[6] = 30th day, general storage conditions
[7] = initial, general storage conditions
[8] = after 1 hour, aqueous solution, pH ~10.5, 25 to 35° C.
[9] = after 2 hours, aqueous solution, pH ~10.5, 25 to 35° C.
[10] = after 3 hours, aqueous solution, pH ~10.5, 25 to 35° C.
[11] = initial, aqueous solution, pH ~10.5, 25 to 35° C.
[12] = stored at 2-8° C. in packaging of the invention, sample from methanol/water (Form A)
[13] = stored at 25° C. and 60% RH in packaging of the invention, sample from ethylacetate

With CC(C)C[C@H](NC(=O)[C@H](Cc1ccccc1)NC(=O)c1cnccn1)B(O)O [Bortezomib, [(1R)-3-methyl-1-[[(2S)-1-oxo-3-phenyl-2-[(pyrazinylcarbonyl)amino]propyl]amino]butyl]boronic acid] the “Impurity-a content on 7th day” value [1, 4] was 0.06%, the “Impurity-b (RR and SS diastereomers) content on 7th day” value [1, 4] was 0.33% and the “Bortezomib purity by HPLC, Purity on 7th day” value ([1]; 7th day, general storage conditions, sample from ethylacetate) was 99.34%. The “Impurity-a content on 15th day” value [1, 5] was 0.08%, the “Impurity-b (RR and SS diastereomers) content on 15th day” value [1, 5] was 0.35% and the “Bortezomib purity by HPLC, Purity on 15th day” value ([1]; 15th day, general storage conditions, sample from ethylacetate) was 98.92%. For the same compound, the “Impurity-a content on 30th day” value [1, 6] was 0.18%, the “Impurity-b (RR and SS diastereomers) content on 30th day” value [1, 6] was 0.39% and the “Bortezomib purity by HPLC, Purity on 30th day” value ([1]; 30th day, general storage conditions, sample from ethylacetate) was 97.22%. The “Impurity-a content, Initial” value [1, 7] was 0.06%, the “Impurity-b (RR and SS diastereomers) content, Initial” value [1, 7] was 0.36% and the “Bortezomib purity by HPLC, Initial purity” value ([1]; initial, general storage conditions, sample from ethylacetate) was 99.49%. The “Storage stability in words” value ([1]; sealed polymeric bag without desiccants, normal temperature) was “unstable; also recorded: substantial degradation of product”, the “Chemical Purity by HPLC, After 1 hour” value [2, 8] was 98.24% and the “Impurity-a content, After 1 hour” value [2, 8] was 0.8924%. The “Impurity-b (RR and SS diastereomers) content, After 1 hour” value [2, 8] was 0.4005%, the “Chemical Purity by HPLC, After 2 hour” value [2, 9] was 98.01% and the “Impurity-a content, After 2 hour” value [2, 9] was 0.9587%. The “Impurity-b (RR and SS diastereomers) content, After 2 hour” value [2, 9] was 0.4746%, the “Chemical Purity by HPLC, After 3 hours” value [2, 10] was 97.77% and the “Impurity-a content, After 3 hours” value [2, 10] was 1.0229%. The “Impurity-b (RR and SS diastereomers) content, After 3 hours” value [2, 10] was 0.5418%, the “Stability in aqueous basic solution in words” value ([2]; aqueous solution maintained under stirring in a basic medium) was “decrease the purity; also recorded: purity of the compound decreased continually” and the “Chemical Purity by HPLC, Initial” value ([2]; initial (immediately after adjusting the pH), aqueous solution, pH ~10.5 (2N NaOH), 25 to 35° C.) was 98.61%. The “Impurity-a content, Initial” value [2, 11] was 0.7899%, the “Impurity-b (RR and SS diastereomers) content, Initial” value [2, 11] was 0.2991% and the “Purity on 15th day” value [3, 12] was 99.59%. For the same compound, the “Purity on 15th day” value [3, 13] was 99.56%, the “Purity on 30th day” value [3, 12] was 99.59% and the “Purity on 30th day” value [3, 13] was 99.60%. The “Purity on 60th day” value [3, 12] was 99.65%, the “Purity on 60th day” value [3, 13] was 99.63% and the “Purity on 90th day” value [3, 12] was 99.66%. For the same compound, the “Purity on 90th day” value [3, 13] was 99.54%, the Initial purity [3, 12] was 99.60% and the Initial purity [3, 13] was 99.58%. For the same compound, the “Storage stability in words” value ([3]; packaging conditions of the invention, prolonged storage periods) was “can be stabilized while retaining its purity content over prolonged storage periods”.
